Common to all, as to format: cell-based
In one data set the test system is PSA. Description: Western blot of AR target PSA in prostate cancer cells. Here is the method:
(§1) FIGS. 10A and 10B. Down-regulation of the expression of AR and its downstream target PSA by SID 3712502 in C4-2 (FIG. 10A) and LNCaP (FIG. 10B) cells. Cells in RPMI 1640 complete medium were treated with SID 3712502 or vehicle DMSO at the indicated concentrations for 48 hrs. The cells were then harvested in RIPA buffer for Western blot analysis using antibodies for AR, PSA, and GAPDH. GAPDH was included as a loading control.
FIGS. 13A-C. Effect of SID 3712502 on the expression of AR and PSA in 22Rv1 (FIG. 13A) cells. […] The cells in RPMI 1640 complete medium were treated with SID 3712502 or vehicle DMSO at the indicated concentrations (uM) for 48 h. The cells were then harvested in RIPA buffer for Western blot analysis using antibodies for AR, PSA, and GAPDH. GAPDH was included as a loading control. FIG. 13B. SID 3712502 inhibits AR transactivation of PSA-luciferase reporter. C4-2 cells were transfected with PSA6.1-Luc, GFP-AR, and pRL-CMV and then treated with indicated doses of SID 3712502 for 24 hours. FIG. 13C. SID 3712502 inhibits transactivation of PSA-luciferase reporter by AR(1-665), which lacks LBD. […] For luciferase assays, cells were lysed with passive lysis buffer (Promega) and both Firefly and Renilla luciferase activities were read using a Dual-Luciferase Reporter Assay kit (Promega) on a LmaxII384 luminometer (Molecular Devices). […]
In general terms: Immunoblotting shows a protein as a band on a membrane.

In the next data set the test system is LAPC4 cells. Description: BrdU incorporation, LAPC4. Conditions: LAPC4, 48 hrs. Here is the method: (§2) FIGS. 14A-F. Effect of SID 3712502 at indicated concentrations on BrdU incorporation in cultured AR-positive LNCaP (FIG. 14A), C4-2 (FIG. 14B), 22Rv1 (FIG. 14C), LAPC4 (FIG. 14D) cells, and AR-negative DU145 (FIG. 14E) and PC3 (FIG. 14F) cells. Cells were plated in 12-well plates at 2,500 cell per well in RPMI 1640 complete medium. After 24 hrs, the cells were treated with SID 3712502 at the indicated concentrations for 48 hrs and BrdU incorporation was assayed according to manufacturer's instructions (Invitrogen BrdU staining kit; catalog #: 93-3943). The percentage of BrdU-positive cells was determined and then normalized to generate relative BrdU index. Ctrl=DMSO control.

Another data set deals with C4-2 cells. The experiment in a line: BrdU incorporation, C4-2. To be noted: C4-2, 48 hrs. Here is the method: as §2
A general note: Dividing cells build labelled thymidine or BrdU into new DNA.

The target of a further data set is T1, GFP-ER (Homo sapiens, UniProt P03372).
T1 construct: expressed in transfected cells; host or cells: C4-2
T1 sequence (P03372 whole entry): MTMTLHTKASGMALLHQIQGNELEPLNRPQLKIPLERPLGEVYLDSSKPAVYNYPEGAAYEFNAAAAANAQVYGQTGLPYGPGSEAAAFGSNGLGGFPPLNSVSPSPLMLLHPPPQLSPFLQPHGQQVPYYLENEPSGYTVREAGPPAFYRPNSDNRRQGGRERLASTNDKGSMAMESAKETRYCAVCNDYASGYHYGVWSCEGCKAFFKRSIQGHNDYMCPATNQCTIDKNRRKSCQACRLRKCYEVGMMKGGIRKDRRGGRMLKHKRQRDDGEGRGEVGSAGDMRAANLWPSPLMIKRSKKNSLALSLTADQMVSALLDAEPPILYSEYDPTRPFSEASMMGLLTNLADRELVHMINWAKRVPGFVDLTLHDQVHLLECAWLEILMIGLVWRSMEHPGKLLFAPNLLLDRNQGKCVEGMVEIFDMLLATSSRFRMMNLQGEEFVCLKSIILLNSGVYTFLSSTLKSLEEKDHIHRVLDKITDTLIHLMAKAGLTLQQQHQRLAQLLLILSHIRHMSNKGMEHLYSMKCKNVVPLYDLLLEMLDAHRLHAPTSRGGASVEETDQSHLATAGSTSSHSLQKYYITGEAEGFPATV
The experiment in a line: GFP-ER nuclear localization in transfected C4-2 cells. Conditions: 24 hours. Here is the method: FIG. 7. The effect of SID 14730725 and SID 3712502 on nuclear localization of GFP-ER (Top panel) and GFP-GR (Bottom panel) in C4-2 cells. C4-2 cells were transfected with GFP-ER or GFP-GR overnight. The following day the cells were treated with different concentrations (uM) of the small molecules. The cells transfected with GFP-GR were co-treated with 0.5 μM Dexamethasone. Cells were imaged 24 hours after the treatment with the small molecules.

Another data set deals with 22Rv1 cells. The experiment in a line: BrdU incorporation, 22Rv1. Conditions: 22Rv1, 48 hrs. Here is the method:
as §2

A further data set relates to PC3 cells. Description: Cell survival, crystal violet staining, PC3. Conditions: 48 hrs. Here is the method: FIGS. 8A and 8B. Effect of SID 14730725 and SID 3712502 on survival of PC3 (FIG. 8A) and C4-2 cells (FIG. 8B). PC3 or C4-2 cells were plated in 12-well plates at 2,500 cell per well in RPMI 1640 complete medium. After 24 hrs, the cells were treated with SID 14730725 or SID 3712502 at the indicated concentrations for 48 hrs. The wells were washed with PBS thrice and fixed in 0.5% crystal Violet in methanol. C=control; treated with vehicle DMSO.

A further data set deals with AR. Description: Western blot of AR protein in prostate cancer cells. Conditions: for endogenous AR level (degradation): 48 hrs. Here is the method:
as §1
FIGS. 13A-C. Effect of SID 3712502 on the expression of AR and PSA in 22Rv1 (FIG. 13A) cells. […] The cells in RPMI 1640 complete medium were treated with SID 3712502 or vehicle DMSO at the indicated concentrations (uM) for 48 h. The cells were then harvested in RIPA buffer for Western blot analysis using antibodies for AR, PSA, and GAPDH. GAPDH was included as a loading control. FIG. 13B. SID 3712502 inhibits AR transactivation of PSA-luciferase reporter. C4-2 cells were transfected with PSA6.1-Luc, GFP-AR, and pRL-CMV and then treated with indicated doses of SID 3712502 for 24 hours. FIG. 13C. SID 3712502 inhibits transactivation of PSA-luciferase reporter by AR(1-665), which lacks LBD. PC3 cells were transfected with GFP-NAR and PSA6.1 Luc overnight prior to treatment with 10 μM SID 3712502 (SID) or DMSO (C) for 24 hours. For luciferase assays, cells were lysed with passive lysis buffer (Promega) and both Firefly and Renilla luciferase activities were read using a Dual-Luciferase Reporter Assay kit (Promega) on a LmaxII384 luminometer (Molecular Devices). Firefly luciferase values were normalized to Renilla (pRL-CMV) or protein of cell lysates. Plotted values represent averaged normalized Firefly luciferase activities, each performed in triplicate, relative to DMSO control. One-way ANOVA was performed with a Bonferroni's Multiple Comparison posttest *** p<0.0001 (C). Student's t-test was performed; ***p=0.0002 (D).

Molecules are shown by their SMILES.

`Cc1cccc(N2CCN(C(=O)CSCc3c(C)noc3C)CC2)c1C` [SID 3712502, 2-[(3,5-dimethyl-1,2-oxazol-4-yl)methylsulfanyl]-1-[4-(2,3-dimethylphenyl)piperazin-1-yl]ethanone]: the “AR-target gene PSA expression” value in the data set with PSA (2 uM, 48 h, C4-2 and 22Rv1 cells) is on record as “significantly inhibited”. Further, the PSA expression result in the data set with PSA (LNCaP cells, 48 hrs) is given as “Down-regulation”. The “proliferation (BrdU incorporation)” value in the data set with LAPC4 cells, with C4-2 cells and in the data set on 22Rv1 cells was “inhibited the proliferation” each time. Besides, the “localization of GFP-ER” value at GFP-ER is recorded as “no effect”. Further, the cytotoxicity entry in the data set on PC3 cells is on record as “little or no cytotoxicity”. Further, the AR protein levels entry in the data set on AR (10-50 uM, 48 h, C4-2 and 22Rv1 cells) is recorded as “inhibited AR protein levels”. Further, the “endogenous AR level (degradation)” value in the data set with AR (C4-2 cells) and in the data set with AR (LNCaP cells) was “can cause degradation of endogenous AR” in each case.

The values are drawn from US10004730B2, “Small molecules targeting androgen receptor nuclear localization and/or level in prostate cancer” (University of Pittsburgh-Of the Commonwealth System of …, priority 2011, dated 2018).
